# Measurements reported in patent US8772237B2, “Compositions and methods for counteracting effects of reactive oxygen species and free radicals” (Ischemix, Inc., priority 1999, dated 2014).
# Ends that are not written are not given here. * marks the point of attachment. Palmitoyl = CCCCCCCCCCCCCCCC(=O)*; Gga = not defined here
# Experiments:
# [1] = system: middle cerebral artery (MCA) permanent occlusion stroke model; assay: Permanent MCA 24-hour occlusion stroke model; format: in vivo, Sprague-Dawley rats; details: Dose 0.03 mg/hr
# [2] = system: superoxide dismutase (SOD) protein; assay: Western immunoblot of SOD protein in rat brain primary cortical cultures; format: cell-based; details: for SOD: 5 hours at 37° C.
# Method: Primary cortical cultures were obtained by growing newborn rat brain cortical cells in Delbecco's modified Eagle medium supplemented with 25 μg/ml of gentamycin and 10% fetal calf serum. The cells were isolated from the E-21 cortex of rat brain, plated at a density of 1×10^5 per ml and grown to confluence within four to five days in an atmosphere containing air and 5% CO2 at 37° C. as described in Cornell-Bell et al., Science, 247: 470-473 (1990) and Cell Calcium, 12: 185-204 (1991). Cultures were grown in 20 ml flasks as a monolayer and then exposed to various concentrations of peptides for studies of the effects of peptides on upregulation of genes for SOD and CAT and on the transmigration of transcription factor AP-1 to cell nuclei. […]
# (§1) Tissue culture experiments were carried out using primary cultures of rat brain cortical cells as previously described above in Example 2. Primary cultures from embryonic rat brain isolated at E-21 (21 day embryos) and incubated for five hours with various doses: 1, 10, 100 ng/ml of CMX-99672. Cytoplasmic proteins were isolated and analyzed for upregulation of SOD and CAT by Western immunoblots as described above. […] The Western blot was scanned to quantify the fold-increase in SOD production in cell cultures treated with the CMX-99672 peptide compound.
# Representative peptide compounds were tested at various doses and compared for their ability to upregulate expression of genes for SOD and/or CAT in rat primary cortical cultures basically as described above. Cultures were incubated with a peptide compound for 5 hours at 37° C. Cytoplasmic protein fractions were prepared as described above. Cytoplasmic proteins were separated by gel electrophoresis and analyzed by Western immunoblots using antisera to SOD and CAT, respectively (Rockland, Inc., Gilbertsville, Pa.). […]
# catalase (CAT) protein = assay: Western immunoblot of CAT protein in rat primary cortical cultures; format: cell-based; details: for CAT: 5 hours at 37° C.
# Method: as §1
# Representative peptide compounds were tested at various doses and compared for their ability to upregulate expression of genes for SOD and/or CAT in rat primary cortical cultures basically as described above. Cultures were incubated with a peptide compound for 5 hours at 37° C. Cytoplasmic protein fractions were prepared as described above. Cytoplasmic proteins were separated by gel electrophoresis and analyzed by Western immunoblots using antisera to SOD and CAT, respectively (Rockland, Inc., Gilbertsville, Pa.).
# [3] = system: Superoxide Dismutase (SOD); assay: In vivo upregulation of SOD in rat organs (Western immunoblot); parameters: species or system Sprague-Dawley rats; details: for SOD Activity: 6-hour treatment, 10 mg/kg i.v.
# Method: In vivo experiments were carried out in Sprague-Dawley rats (300-325 g) with solutions of CMX-1152 or CMX-99672. The animals were injected intravenously (iv) via the tail vein with a peptide compound. […] The animals were sacrificed by decapitation at 6, 12, 24, 48, and 72 hours post injection and dissected to isolate brain, liver, heart, kidney, lung organs, which were frozen at −70° C. for subsequent analysis. In addition, 2 ml samples of whole blood were taken from each animal. Half (1 ml) of each sample was centrifuged to remove nuclei and cell membranes to yield plasma. The remaining half was stored frozen as whole blood at −70° C.
# Each tissue was thawed and homogenized in a Down's homogenizer using ten volumes of homogenizer buffer (see, Adams et al., General Cellular Biochemistry, 77: 221-233 (2000); buffer as described in Adams et al., J. Leukoc. Biol., 62: 865-875 (1967)) to obtain a crude cytoplasmic fraction. The tissue homogenates were centrifuged (14,000×g for 5 minutes at 4° C.) to yield the supernatant purified cytoplasmic protein fractions as described in Adams et al. (J. Cell. Biochem., 77: 221-233 (2000)). A 10 μg sample of each protein fraction was then separated by SDS polyacrylamide gel electrophoresis (SDS-PAGE) and analyzed for SOD and CAT content by Western blot assay.
# Control for measurement of unstimulated levels of SOD and CAT were obtained from two vehicle only (i.e., no peptide compound) injected rats that were sacrificed at 24 and 72 hours post injection. Both had essentially the same unstimulated levels of SOD and CAT. Standard quantities of each cytoplasmic fractions (10 μg) were loaded on a lane of a gel for electrophoretic separation and Western immunoblot analysis (Adams et al., J. Cell. Biochem., 77: 221-233 (2000)). The stained gels were photographed and scanned by laser densitometry to quantify intensities in comparison to enzyme levels for control vehicle treated rats.
# [4] = five hours, doses 1, 10, 100 ng/ml
substance,measurement,setting,value
[DHA]-Lys Lys Asp Gly Asp Gly Asp Phe Ala Ile Asp Ala Pro Glu [CMX-9236D],Percent Neurological Rescue,[1],50 ± 18%
same,Percent Rescue (percent decrease in infarct size vs vehicle controls),[1],48 ± 12%
[Palm] Asp Gly Asp Gly Phe Ala (Palmitoyl-DGDGFA) [CMX-9960],SOD,[2]; Dose 6.7 pmol/ml,527 % Control
Asp Gly [CMX-99672],upregulation of CAT (in words),catalase (CAT) protein; [4],Comparable data was obtained for CAT
same,increase in SOD,[2]; [4],approximately 30 fold
same,increase in SOD-related protein,[2]; [4],~20 fold
[Ac] Asp Gly Asp Gly Phe Ala (Ac-DGDGFA) [CMX-99655],CAT,catalase (CAT) protein; Dose 8 pmol/ml,520 % Control
same,SOD,[2]; Dose 8 pmol/ml,750 % Control
[Ac] Thr Val Ser [CMX-99647],SOD,[2]; Dose 6.7 pmol/ml,2066 % Control
Asp Gly [CMX-1152],SOD Activity,[3]; Brain,520 % of Control
same,SOD Activity,[3]; Heart,550 % of Control
same,SOD Activity,[3]; Kidney,200 % of Control
same,SOD Activity,[3]; Liver,200 % of Control
same,SOD Activity,[3]; Lung,520 % of Control
same,SOD Activity,[3]; Plasma,420 % of Control
same,SOD Activity,[3]; Whole Blood,490 % of Control
same,upregulation in SOD production relative to control,"[3]; brain, heart, lung, and blood",four to five-fold
same,upregulation in SOD production relative to control,[3]; liver and kidney,approximately two-fold
same,SOD,[2]; Dose 6.7 pmol/ml,2143 % Control
same,SOD Upregulation,[2]; Dose 1 ng/ml,170 % Control
same,SOD Upregulation,[2]; Dose 10 ng/ml,330 % Control
same,SOD Upregulation,[2]; Dose 100 ng/ml,420 % Control
KKQTLQFR,CAT,catalase (CAT) protein; Dose 95 pmol/ml,400 % Control
same,SOD,[2]; Dose 95 pmol/ml,350 % Control
[Gga] Asp Gly Asp Gly Phe Ala (Gga-DGDGFA; not fully specified; printed as [Gga] Asp Gly Asp Gly Phe Ala; reading uncertain) [CMX-99661],SOD,[2]; Dose 6.7 pmol/ml,463 % Control
